Assay results taken from PubChem BioAssay (NCI).
Where “and” joins values, the source holds several entries; their conditions need not be identical. Identical values can stand only once.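 Assay format: 96-well plates, 48-hour exposure. At the GI50, growth is halved. TGI is the concentration that stops growth completely.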

Assays:
Experiment in all cases: growth of human tumour cells (NCI), 48 h
MDA-MB-231 breast = test system: MDA-MB-231 breast
A549 NSCLC = test system: A549 NSCLC
LOX IMVI melanoma = test system: LOX IMVI melanoma
HOP-62 NSCLC = test system: HOP-62 NSCLC
UO-31 renal = test system: UO-31 renal
M14 melanoma = test system: M14 melanoma
HCT-15 colon = test system: HCT-15 colon
PC-3 prostate = test system: PC-3 prostate
SN12C renal = test system: SN12C renal
MALME-3M melanoma = test system: MALME-3M melanoma

Compound	TGI (MDA-MB-231 breast)	TGI (A549 NSCLC)	TGI (LOX IMVI melanoma)	TGI (HOP-62 NSCLC)	TGI (UO-31 renal)	TGI (M14 melanoma) [µM]	TGI (HCT-15 colon)	TGI (PC-3 prostate)	TGI (SN12C renal)	TGI (MALME-3M melanoma)	GI50 (MDA-MB-231 breast)	GI50 (A549 NSCLC)	GI50 (LOX IMVI melanoma)	GI50 (HOP-62 NSCLC)	GI50 (UO-31 renal)	GI50 (M14 melanoma)	GI50 (HCT-15 colon)	GI50 (PC-3 prostate)	GI50 (SN12C renal)	GI50 (MALME-3M melanoma)
COC(=O)C1(Cc2cccc(Cl)c2)CCCCCCN1C(=O)c1ccccc1 (stereo not drawn)	29 µM	33.6 µM	32.8 µM	29 µM	29.3 µM	45	25.3 µM	17.4 µM	28.1 µM	25.3 µM	–	–	–	–	–	–	–	–	–	–
COc1cc(C2C(C#N)=C(N)OC3=C2C(=O)c2ccccc2C3=O)cc(OC)c1OC (stereo not drawn)	41.7 µM	29.6 µM	14 µM	17.7 µM	21.3 µM	16.1	18.5 µM	> 100 µM	11.1 µM	13.7 µM	3.53 µM	1.32 µM	0.629 µM	0.961 µM	2.79 µM	0.395 µM	1.45 µM	0.577 µM	1.3 µM	1.18 µM
COc1ccc(/C=C(\C#N)c2cc3ccccc3n2C)cc1	> 100 µM	> 100 µM	> 100 µM	> 100 µM	> 100 µM	> 100	> 100 µM	> 100 µM	> 100 µM	> 100 µM	0.699 µM	0.514 µM	0.577 µM	0.497 µM	0.924 µM	0.308 µM	0.372 µM	0.448 µM	0.58 µM	0.475 µM
O=[As](O)(O)c1ccc(Cc2ccc([As](=O)(O)O)cc2)cc1	2.3 µM	3.81 µM	1.41 µM	3.6 µM	2.63 µM	2.46	3.21 µM	1.76 µM	2.08 µM	2.62 µM	–	–	–	–	–	–	–	–	–	–
O=[N+]([O-])c1ccc2c(N=Nc3c(O)ccc4ccccc34)c(O)cc(S(=O)(=O)O)c2c1	50 µM and > 100 µM	50 µM and > 100 µM	> 100 µM	50 µM and > 100 µM	18.9 µM and 51.5 µM	10.5	50 µM and > 100 µM	50 µM and > 100 µM	50 µM and > 100 µM	40.3 µM and > 100 µM	> 100 µM	59.7 µM	–	17.1 µM	10.9 µM	–	29.9 µM	34.5 µM	59 µM	50.1 µM
O=Cc1coc2ccccc2c1=O	48.4 µM	84.9 µM	37.1 µM	43.8 µM	28.8 µM	38.5	37.4 µM	53.7 µM	58.6 µM	30.2 µM	–	–	–	–	–	–	–	–	–	–
O=C(/C=C\c1ccnc2ccccc12)c1ccc([N+](=O)[O-])cc1	38.7 µM	> 100 µM	3.75 µM	> 80.1 µM	> 50.7 µM	19.4	9.2 µM	48.2 µM	> 64.2 µM	> 100 µM	8.63 µM	> 41.1 µM	1.83 µM	> 38.4 µM	4.99 µM	4.94 µM	2.55 µM	8.62 µM	16.1 µM	57.2 µM
Cc1nc(NC(=O)N2CCC[C@H]2C(N)=O)sc1-c1ccnc(C(C)(C)C(F)(F)F)c1	32 µM and > 10 µM	30.9 µM and > 10 µM	22 µM and > 10 µM	> 75.1 µM	36.7 µM and > 10 µM	> 82	47 µM and > 10 µM	25.4 µM and > 10 µM	> 100 µM	22.4 µM and > 10 µM	11.3 µM and > 10 µM	2.94 µM and 4.74 µM	3.36 µM and 2.58 µM	8.06 µM and > 10 µM	2.48 µM and 2.07 µM	8.75 µM and > 10 µM	1.36 µM and 2.81 µM	2.19 µM and 3.61 µM	6.43 µM and > 10 µM	1.8 µM and > 10 µM
CCNCCNc1cc(-c2ccc(F)cc2)c(C#N)c2nc3ccccc3n12	7.69 µM	15.4 µM	3.45 µM	32.8 µM	3.75 µM	3.63	5.86 µM	19.5 µM	14.4 µM	3.45 µM	2.73 µM	4.78 µM	1.82 µM	18.2 µM	1.82 µM	1.97 µM	2.31 µM	6.98 µM	3.89 µM	1.77 µM
Cn1cnc([N+](=O)[O-])c1Sc1ncnc2c1ncn2C1OC(CO)C(O)C1O (stereo not drawn)	> 100 µM	> 100 µM	> 100 µM	> 100 µM	> 100 µM	> 100	> 100 µM	> 100 µM	> 100 µM	> 100 µM	9.62 µM	29.3 µM	1.71 µM	2 µM	7.1 µM	2.29 µM	11.6 µM	8.66 µM	41.9 µM	46.3 µM
O=C(/C=C/c1ccco1)Nc1ncc(Cc2ccc(F)cc2)s1	> 45.4 µM	> 100 µM	> 100 µM	> 100 µM	> 100 µM	> 100	> 100 µM	> 100 µM	> 100 µM	> 100 µM	0.199 µM	0.118 µM	0.0918 µM	0.145 µM	0.194 µM	0.036 µM	0.0461 µM	0.0571 µM	0.189 µM	0.249 µM
COc1ccc(C(Nc2ncccn2)c2cc3c(cc2O)OCO3)cc1 (stereo not drawn)	48.2 µM	> 100 µM	32.2 µM	54.5 µM	34.4 µM	39.4	44.6 µM	43.2 µM	37.8 µM	54.6 µM	–	–	–	–	–	–	–	–	–	–
